In US20260325533A1, “CDK INHIBITOR COMPOUNDS” (ALEKSIA THERAPEUTICS, INC., priority 2023, published 2026):
Structures can show the parent of a compound that is named as a salt. Where two headings read alike, the source gives them in different places.

Tests used:
Format in all cases: biochemical
[1] = molecular target: CDK4/CCND3 (Homo sapiens, UniProt P11802); assay: CDK4 homogeneous time-resolved fluorescence (HTRF) kinase assay
Summary of the method: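 TR-FRET read (665 nm, or 665/615 ratio) of 4E-BP1 Thr37/46 phosphorylation by 1.5 nM CDK4/CCND3 at 1 mM ATP, 50 nM ULight peptide, 1% DMSO. Reaction ran 60 min at 23 °C after 20 min compound–enzyme preincubation. IC50 from 11-point half-log dilutions, top 10 μM.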

[2] = molecular target: CDK1/CCNB1 (Homo sapiens, UniProt P06493); assay: CDK1 homogeneous time-resolved fluorescence (HTRF) kinase assay
Sequence of CDK1/CCNB1 (P06493 whole entry): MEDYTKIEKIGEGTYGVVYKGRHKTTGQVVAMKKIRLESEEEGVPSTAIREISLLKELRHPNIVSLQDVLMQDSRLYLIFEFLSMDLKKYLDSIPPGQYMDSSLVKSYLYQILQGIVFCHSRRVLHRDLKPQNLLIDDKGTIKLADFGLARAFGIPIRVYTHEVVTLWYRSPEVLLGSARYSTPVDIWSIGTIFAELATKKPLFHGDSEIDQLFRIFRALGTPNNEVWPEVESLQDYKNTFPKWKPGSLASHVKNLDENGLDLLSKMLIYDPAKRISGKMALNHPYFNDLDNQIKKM
Sequence of CDK1/CCNB1 (P14635 whole entry partner): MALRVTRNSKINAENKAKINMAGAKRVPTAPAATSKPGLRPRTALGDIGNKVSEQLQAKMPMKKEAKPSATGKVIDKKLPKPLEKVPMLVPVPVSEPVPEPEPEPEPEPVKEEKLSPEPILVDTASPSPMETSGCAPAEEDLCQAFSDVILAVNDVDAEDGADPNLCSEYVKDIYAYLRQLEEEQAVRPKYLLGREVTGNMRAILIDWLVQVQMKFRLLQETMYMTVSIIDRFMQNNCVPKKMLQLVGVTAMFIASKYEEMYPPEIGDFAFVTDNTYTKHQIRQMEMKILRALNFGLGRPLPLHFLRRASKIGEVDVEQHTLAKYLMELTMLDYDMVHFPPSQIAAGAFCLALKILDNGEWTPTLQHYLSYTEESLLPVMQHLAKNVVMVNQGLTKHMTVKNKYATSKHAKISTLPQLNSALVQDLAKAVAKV
Summary of the method: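 CDK1/CCNB1 0.5 nM + cpd, 20 min 23 °C; add 1 mM ATP, 50 nM ULight-4E-BP1 peptide, 60 min 23 °C; stop 10 mM EDTA; 2 nM Eu-Ab, 60 min; HTRF 665 nm. 11-pt half-log, top 10 μM typical; IC50.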

[3] = molecular target: CDK2/CCNE1 (Homo sapiens, UniProt P24941); assay: CDK2 homogeneous time-resolved fluorescence (HTRF) kinase assay
Summary of the method: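 An HTRF format measures CDK2/CCNE1 (3 nM) phosphorylating a 4E-BP1 Thr37/46 peptide at high (1 mM) ATP. Reactions run one hour at 23 °C, then EDTA-quenched and probed with Eu-labelled phospho-specific antibody.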

[4] = molecular target: CDK6/CCND1 (Homo sapiens, UniProt Q00534); assay: CDK6 homogeneous time-resolved fluorescence (HTRF) kinase assay
Sequence of CDK6/CCND1 (Q00534 whole entry): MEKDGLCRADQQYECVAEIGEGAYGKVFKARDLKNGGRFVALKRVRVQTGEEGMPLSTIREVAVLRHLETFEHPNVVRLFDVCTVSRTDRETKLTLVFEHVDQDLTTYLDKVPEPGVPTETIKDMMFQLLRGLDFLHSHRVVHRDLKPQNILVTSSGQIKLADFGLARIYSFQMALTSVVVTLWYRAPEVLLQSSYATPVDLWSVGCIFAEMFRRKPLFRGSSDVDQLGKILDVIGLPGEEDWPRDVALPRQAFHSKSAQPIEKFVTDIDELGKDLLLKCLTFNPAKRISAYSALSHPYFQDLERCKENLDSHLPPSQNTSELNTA
Sequence of CDK6/CCND1 (P24385 whole entry partner): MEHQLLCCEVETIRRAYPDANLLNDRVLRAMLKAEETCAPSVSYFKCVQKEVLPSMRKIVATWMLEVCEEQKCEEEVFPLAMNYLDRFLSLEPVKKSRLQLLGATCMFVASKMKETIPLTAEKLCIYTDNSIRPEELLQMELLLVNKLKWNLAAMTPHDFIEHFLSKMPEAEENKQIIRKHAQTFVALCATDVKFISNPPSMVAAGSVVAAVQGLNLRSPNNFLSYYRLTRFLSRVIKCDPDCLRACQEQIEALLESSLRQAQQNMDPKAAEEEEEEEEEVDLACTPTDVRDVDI
Summary of the method: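 Assay conditions: HEPES buffer containing 10 mM MgCl2, 1 mM EGTA, 2 mM DTT, 0.01% Tween 20; 1 nM CDK6/CCND1, 50 nM peptide substrate, 1 mM ATP. Detection after 60 min reaction used 2 nM europium antibody with 340 nm excitation. Potency fitted from half-log series, 11 points.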

[5] = 1.5 nM CDK4/CCND3, 1 mM ATP, read-out: CDK4/CCND IC50 25-250 nM
[6] = 0.5 nM CDK1/CCNB1, 1 mM ATP, read-out: CDK1/CCNB IC50 >250 nM
[7] = 3 nM CDK2/CCNE1, 1 mM ATP, read-out: CDK2/CCNE IC50 25-250 nM
[8] = 1 nM CDK6/CCND1, 1 mM ATP, read-out: CDK6/CCND IC50 25-250 nM
[9] = 1.5 nM CDK4/CCND3, 1 mM ATP, read-out: CDK4/CCND IC50 >250 nM
[10] = 3 nM CDK2/CCNE1, 1 mM ATP, read-out: CDK2/CCNE IC50 >250 nM
[11] = 1 nM CDK6/CCND1, 1 mM ATP, read-out: CDK6/CCND IC50 >250 nM
[12] = 0.5 nM CDK1/CCNB1, 1 mM ATP, read-out: CDK1/CCNB IC50 25-250 nM
[13] = 3 nM CDK2/CCNE1, 1 mM ATP, read-out: CDK2/CCNE IC50 <25 nM
[14] = 1 nM CDK6/CCND1, 1 mM ATP, read-out: CDK6/CCND IC50 <25 nM

Sequence of CDK4/CCND3 (P11802 whole entry): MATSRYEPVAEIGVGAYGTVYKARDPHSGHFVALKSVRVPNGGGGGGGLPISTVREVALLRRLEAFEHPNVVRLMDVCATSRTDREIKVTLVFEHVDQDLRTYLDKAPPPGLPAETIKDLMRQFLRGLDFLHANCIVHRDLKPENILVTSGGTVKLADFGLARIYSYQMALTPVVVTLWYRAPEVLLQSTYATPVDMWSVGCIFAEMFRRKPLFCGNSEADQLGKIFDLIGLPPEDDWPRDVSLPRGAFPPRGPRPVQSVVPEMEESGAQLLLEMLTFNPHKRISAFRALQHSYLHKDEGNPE
Sequence of CDK4/CCND3 (P30281 whole entry partner): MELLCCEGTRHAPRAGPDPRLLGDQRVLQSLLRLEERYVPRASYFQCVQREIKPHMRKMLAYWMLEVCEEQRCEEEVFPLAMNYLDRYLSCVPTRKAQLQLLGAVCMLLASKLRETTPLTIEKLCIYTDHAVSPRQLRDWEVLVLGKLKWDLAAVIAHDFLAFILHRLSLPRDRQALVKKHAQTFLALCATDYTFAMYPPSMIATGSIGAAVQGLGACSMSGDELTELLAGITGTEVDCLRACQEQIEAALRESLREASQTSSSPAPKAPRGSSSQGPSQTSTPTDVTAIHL

IC50 [1, 5] [µM]	IC50 [2, 6] [µM]	IC50 [1, 9] [µM]	IC50 [3, 10] [µM]	IC50 [4, 11] [µM]	IC50 [2, 12] [µM]	IC50 [3, 13] [µM]	Structure (SMILES)	also measured
							CC(=O)NC1CCN(c2ccc(Nc3cc4c(-c5ccc6c(cnn6CC(C)(C)O)c5C)nccc4cn3)cc2S(C)(=O)=O)C1 (stereo not drawn) [Example 930, N-(1-(4-((5-(1-(2-hydroxy-2-methylpropyl)-4-methyl-1H-indazol-5-yl)-2,6-naphthyridin-3-yl)amino)-2-(methylsulfonyl)phenyl)pyrrolidin-3-yl)acetamide]	IC50 ([1]; 25-250 nM, CDK4/CCND, read-out: CDK4/CCND IC50, 25-250 nM): 0.025 to 0.25 µM; IC50 ([2]; 25-250 nM, CDK1/CCNB, read-out: CDK1/CCNB IC50, 25-250 nM): 0.025 to 0.25 µM; IC50 ([3]; <25 nM, CDK2/CCNE, read-out: CDK2/CCNE IC50, <25 nM): < 0.025 µM; IC50 ([4]; 25-250 nM, CDK6/CCND, 1 mM ATP, read-out: CDK6/CCND IC50, 25-250 nM): 0.025 to 0.25 µM
0.025 to 0.25	> 0.25						CS(=O)(=O)c1ccc(Nc2cc3c(C#Cc4ccc5c(c4)CCNC5)c(C#N)ccc3cn2)cc1 [Example 947, 3-((4-(methylsulfonyl)phenyl)amino)-5-((1,2,3,4-tetrahydroisoquinolin-6-yl)ethynyl)isoquinoline-6-carbonitrile]	IC50 [3, 7]: 0.025 to 0.25 µM; IC50 [4, 8]: 0.025 to 0.25 µM
	> 0.25	> 0.25	> 0.25	> 0.25			CS(=O)(=O)c1ccc(Nc2ncc3ccc(C#N)c(C#Cc4ccc5c(c4)CCNC5)c3n2)cc1 [Example 948, 2-((4-(methylsulfonyl)phenyl)amino)-8-((1,2,3,4-tetrahydroisoquinolin-6-yl)ethynyl)quinazoline-7-carbonitrile, TFA Salt]	
	> 0.25	> 0.25	> 0.25	> 0.25			CS(=O)(=O)c1ccc(Nc2ncc3ccnc(C#Cc4ccc(C#N)cc4)c3n2)cc1 [Example 949, 4-((2-((4-(methylsulfonyl)phenyl)amino)pyrido[3,4-d]pyrimidin-8-yl)ethynyl)benzonitrile]	
	> 0.25	> 0.25		> 0.25			CS(=O)(=O)c1ccc(Nc2cc3c(C4=CCCCC4)ncnc3cn2)cc1 [Example 950, 4-(cyclohex-1-en-1-yl)-N-(4-(methylsulfonyl)phenyl)pyrido[3,4-d]pyrimidin-6-amine]	IC50 [3, 7]: 0.025 to 0.25 µM
	> 0.25	> 0.25	> 0.25	> 0.25			CS(=O)(=O)c1ccc(Nc2cc3c(N4CCC(C#N)CC4)c(C#N)cnc3cn2)cc1 [Example 953, 4-(4-cyanopiperidin-1-yl)-6-((4-(methylsulfonyl)phenyl)amino)-1,7-naphthyridine-3-carbonitrile]	
	> 0.25	> 0.25	> 0.25	> 0.25			Cc1cc(N2CCC(C#N)CC2)c2nc(Nc3ccc(S(C)(=O)=O)cc3)ncc2c1 [Example 954, 1-(6-methyl-2-((4-(methylsulfonyl)phenyl)amino)quinazolin-8-yl)piperidine-4-carbonitrile]	
	> 0.25	> 0.25	> 0.25	> 0.25			CS(=O)(=O)c1ccc(Nc2ncc3ccc(C#N)c(C#Cc4ccc(C#N)cc4)c3n2)cc1 [Example 955, 8-((4-cyanophenyl)ethynyl)-2-((4-(methylsulfonyl)phenyl)amino) quinazoline-7-carbonitrile]	
0.025 to 0.25					0.025 to 0.25	< 0.025	CS(=O)(=O)c1ccc(Nc2ncc3ccnc(C4=CCCCC4)c3n2)cc1 [Example 956, 8-(cyclohex-1-en-1-yl)-N-(4-(methylsulfonyl)phenyl)pyrido[3,4-d]pyrimidin-2-amine]	IC50 [4, 14]: < 0.025 µM
					0.025 to 0.25	< 0.025	CS(=O)(=O)c1ccc(Nc2ncc3ccc(C#N)c(N4CCC(C#N)CC4)c3n2)cc1 [Example 957, 8-(4-cyanopiperidin-1-yl)-2-((4-(methylsulfonyl)phenyl)amino) quinazoline-7-carbonitrile]	IC50 ([1]; 1.5 nM CDK4/CCND3, 1 mM ATP, read-out: CDK4/CCND IC50 <25 nM): < 0.025 µM; IC50 [4, 14]: < 0.025 µM
0.025 to 0.25	> 0.25					< 0.025	CS(=O)(=O)c1ccc(Nc2ncc3ccnc(N4CCC(C#N)CC4)c3n2)cc1 [Example 958, 1-(2-((4-(methylsulfonyl)phenyl)amino)pyrido [3,4-d]pyrimidin-8-yl)piperidine-4-carbonitrile]	IC50 [4, 14]: < 0.025 µM
0.025 to 0.25					0.025 to 0.25	< 0.025	Cc1c(-c2c(C#N)ccc3cnc(Nc4ccc(S(C)(=O)=O)cc4)nc23)ccc2c1cnn2CCO [Example 962, 8-(1-(2-hydroxyethyl)-4-methyl-1H-indazol-5-yl)-2-((4-(methylsulfonyl)phenyl)amino) quinazoline-7-carbonitrile]	IC50 [4, 8]: 0.025 to 0.25 µM
0.025 to 0.25					0.025 to 0.25	< 0.025	Cc1c(-c2nccc3cnc(Nc4ccc(S(C)(=O)=O)cc4)nc23)ccc2c1cnn2CCO [Example 963, 2-(4-methyl-5-(2-((4-(methylsulfonyl)phenyl)amino)pyrido [3,4-d]pyrimidin-8-yl)-1H-indazol-1-yl)ethan-1-ol]	IC50 [4, 8]: 0.025 to 0.25 µM
0.025 to 0.25					0.025 to 0.25	< 0.025	Cc1c(-c2c(C#N)ccc3cnc(Nc4ccc(S(C)(=O)=O)cc4)nc23)ccc2nn(C)cc12 [Example 964, 8-(2,4-dimethyl-2H-indazol-5-yl)-2-((4-(methylsulfonyl)phenyl)amino) quinazoline-7-carbonitrile]	IC50 [4, 8]: 0.025 to 0.25 µM
	> 0.25	> 0.25		> 0.25		< 0.025	Cc1c(-c2nccc3cnc(Nc4ccc(S(C)(=O)=O)cc4)nc23)ccc2nn(C)cc12 [Example 965, 8-(2,4-dimethyl-2H-indazol-5-yl)-N-(4-(methylsulfonyl)phenyl)pyrido[3,4-d]pyrimidin-2-amine]	
